Test system: human skin
Assay: Clinical study with a cream for skincare against skin aging
Assay type: in vivo, humans
Conditions: comparison of skin creams in the clinical study
Description: A cream base was used having the following ingredients:
The huSOD-peptide OA 05 conjugate was produced as described in example 4.
The following compositions of skin cream were prepared for use in the clinical study:
The properties were evaluated according the following criteria: “firmness of the skin”, “reduction of superficial wrinkles”, “reduction of deeper wrinkles”, “skin regeneration”, and “appearance of young skin”. The questionnaire was filled out at least 4 weeks after starting of using the skin cream.
The application of the skin cream was done in all Groups (I to V) over 6 weeks twice a day, creaming the face and the neck in the morning and in the evening without using any other skin products. No application was discontinued in any group. The observation period (counted from the first application) was minimum 4 weeks and maximum 10 weeks.
Furthermore, a total evaluation of the different applied skin creams on a score ranging from 1 (excellent) to 6 (very poor) was performed.

SOD: Super-Oxid- Dismutase (SOD), a free radical catcher; huSOD from Jena Biosciences
beneficial effect on aging parameters in the human skin: has a beneficial effect on different aging parameters in the human skin

KKKQKRKK (Cargo Peptide) [OA 05]
beneficial effect on aging parameters in the human skin: significantly increases the beneficial effect of SOD

Source: US20070086981A1, “Delivery peptides, their constructs with active agents and use” (priority 2003, published 2007)
